Laboratory results taken from ChEMBL document CHEMBL1201862, “PubChem BioAssay data set” (2004).
Activity calls are given as the source filed them.

Key:
[1] = biological target: Chaperone protein dnaK (Escherichia coli, UniProt C3TRK2); assay: DnaK beta-domain binding affinity, SAR follow-up, orthogonal assay for DnaK modulator project, biophysical, isothermal titration calorimetry, full-length DnaK (AID 1495)
[2] = biological target: Dual specificity protein phosphatase 3 (Homo sapiens, UniProt P51452); assay: VHR1 inhibitor Ki determination, SAR follow-up, biochemical, colorimetric (AID 2004)
Chain of Dual specificity protein phosphatase 3 (P51452 whole entry): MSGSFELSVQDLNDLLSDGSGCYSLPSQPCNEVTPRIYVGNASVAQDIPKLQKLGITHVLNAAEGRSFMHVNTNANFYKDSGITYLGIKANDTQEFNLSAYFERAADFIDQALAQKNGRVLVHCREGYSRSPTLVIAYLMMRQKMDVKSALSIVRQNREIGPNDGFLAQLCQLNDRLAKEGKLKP

[3] = HepG2 cell cytotoxicity, dose response, cytotoxicity control for Shn3 inhibitor project, CellTiter-Glo, cherry-picked (AID 624134); type: functional, cell-based
[4] = Shn3 3'UTR reporter inhibitors, dose response, cell-based, Clone20 osteoblasts, firefly luciferase, cherry-picked (AID 624132); type: functional;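 also: firefly luciferase luminescence from reporter carrying the Shn3 3'UTR in osteoblasts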
[5] = biological target: C-C chemokine receptor type 6 (Homo sapiens, UniProt P51684); assay: CCR6 receptor antagonists, dose response, cell-based, luminescent beta-arrestin readout (AID 504728); type: functional
Chain of C-C chemokine receptor type 6 (P51684 whole entry): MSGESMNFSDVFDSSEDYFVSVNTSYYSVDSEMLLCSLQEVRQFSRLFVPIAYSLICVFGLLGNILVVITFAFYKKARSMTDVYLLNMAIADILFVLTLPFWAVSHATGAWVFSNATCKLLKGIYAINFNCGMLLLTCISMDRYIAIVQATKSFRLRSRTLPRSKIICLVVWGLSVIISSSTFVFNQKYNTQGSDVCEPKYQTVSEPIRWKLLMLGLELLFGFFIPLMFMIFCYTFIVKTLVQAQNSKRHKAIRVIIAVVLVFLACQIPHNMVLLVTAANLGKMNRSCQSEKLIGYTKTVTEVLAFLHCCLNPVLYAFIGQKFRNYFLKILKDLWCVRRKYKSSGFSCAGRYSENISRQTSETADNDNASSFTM

[6] = biological target: Beta-galactosidase (Escherichia coli, UniProt Q8VNN2); assay: beta-galactosidase enzyme inhibitors and activators, dose response, artefact control for CCR6 antagonist project, biochemical, E. coli enzyme, set 3 (AID 504712); type: functional
Chain of Beta-galactosidase (Q8VNN2 whole entry): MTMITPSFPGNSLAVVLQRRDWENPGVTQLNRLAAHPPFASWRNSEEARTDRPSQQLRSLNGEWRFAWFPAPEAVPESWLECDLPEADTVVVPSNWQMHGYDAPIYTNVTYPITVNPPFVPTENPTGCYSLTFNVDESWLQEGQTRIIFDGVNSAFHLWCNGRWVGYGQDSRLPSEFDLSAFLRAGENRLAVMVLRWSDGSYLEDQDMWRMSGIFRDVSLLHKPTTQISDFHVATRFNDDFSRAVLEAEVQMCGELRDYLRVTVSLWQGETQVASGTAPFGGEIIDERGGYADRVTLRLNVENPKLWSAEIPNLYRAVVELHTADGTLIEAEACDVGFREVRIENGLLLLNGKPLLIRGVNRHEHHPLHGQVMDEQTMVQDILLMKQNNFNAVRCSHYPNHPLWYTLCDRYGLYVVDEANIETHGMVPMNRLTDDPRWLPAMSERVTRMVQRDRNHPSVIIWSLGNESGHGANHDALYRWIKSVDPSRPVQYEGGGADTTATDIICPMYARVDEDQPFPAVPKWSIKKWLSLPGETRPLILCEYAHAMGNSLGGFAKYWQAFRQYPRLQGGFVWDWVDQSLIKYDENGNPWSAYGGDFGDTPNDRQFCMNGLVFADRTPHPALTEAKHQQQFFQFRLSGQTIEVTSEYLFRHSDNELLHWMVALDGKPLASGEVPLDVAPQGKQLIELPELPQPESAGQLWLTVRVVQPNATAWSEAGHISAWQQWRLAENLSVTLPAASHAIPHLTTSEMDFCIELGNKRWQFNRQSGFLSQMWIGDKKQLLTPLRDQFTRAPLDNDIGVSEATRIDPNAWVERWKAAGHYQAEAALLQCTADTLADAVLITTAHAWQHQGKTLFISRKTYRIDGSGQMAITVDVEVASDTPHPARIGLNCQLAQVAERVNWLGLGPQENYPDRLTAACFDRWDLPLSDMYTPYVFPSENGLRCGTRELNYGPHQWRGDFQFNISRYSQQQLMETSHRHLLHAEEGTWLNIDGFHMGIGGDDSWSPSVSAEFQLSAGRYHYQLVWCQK

[7] = control 3'UTR Renilla luciferase suppression, dose response, counter-screen for Shn3 inhibitor project, cell-based, Clone20-Shn3RL, cherry-picked (AID 624133); type: functional
[8] = Luminescence Cell-Based Dose Confirmation HTS to Identify Inhibitors of Platelet Dense Granule Release. [Related pubchem assays: 1663 (Primary HTS), 1678 (Summary of Project)]; type: functional
[9] = inhibition of ADP-Glo detection reagents, dose response, artefact control for CDK5 inhibitor project, biochemical, luminescence, cherry-picked samples, set 2 (AID 504546); type: functional
[10] = biological target: Cytochrome P450 2D6 (Homo sapiens, UniProt P10635); assay: qHTS Assay for Inhibitors and Substrates of Cytochrome P450 2D6. [Related pubchem assays: 410 ]; type: ADME; conditions: read-out: Potency
Chain of Cytochrome P450 2D6 (P10635 whole entry): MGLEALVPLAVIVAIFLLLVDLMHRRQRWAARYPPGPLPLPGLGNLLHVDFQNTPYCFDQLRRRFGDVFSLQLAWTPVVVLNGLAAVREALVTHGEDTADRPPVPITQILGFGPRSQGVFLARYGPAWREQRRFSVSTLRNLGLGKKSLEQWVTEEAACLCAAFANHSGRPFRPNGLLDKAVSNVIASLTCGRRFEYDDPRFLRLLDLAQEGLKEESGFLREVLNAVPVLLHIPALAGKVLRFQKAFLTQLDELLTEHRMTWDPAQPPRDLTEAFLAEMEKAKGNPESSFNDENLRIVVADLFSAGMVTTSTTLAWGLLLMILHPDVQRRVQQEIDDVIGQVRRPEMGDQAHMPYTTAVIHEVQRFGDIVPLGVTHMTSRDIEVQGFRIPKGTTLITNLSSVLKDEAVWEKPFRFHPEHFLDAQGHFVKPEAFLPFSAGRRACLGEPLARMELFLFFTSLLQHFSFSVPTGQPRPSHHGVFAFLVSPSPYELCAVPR

[11] = biological target: Cytochrome P450 2C9 (Homo sapiens, UniProt P11712); conditions: Potency
Chain of Cytochrome P450 2C9 (P11712 whole entry): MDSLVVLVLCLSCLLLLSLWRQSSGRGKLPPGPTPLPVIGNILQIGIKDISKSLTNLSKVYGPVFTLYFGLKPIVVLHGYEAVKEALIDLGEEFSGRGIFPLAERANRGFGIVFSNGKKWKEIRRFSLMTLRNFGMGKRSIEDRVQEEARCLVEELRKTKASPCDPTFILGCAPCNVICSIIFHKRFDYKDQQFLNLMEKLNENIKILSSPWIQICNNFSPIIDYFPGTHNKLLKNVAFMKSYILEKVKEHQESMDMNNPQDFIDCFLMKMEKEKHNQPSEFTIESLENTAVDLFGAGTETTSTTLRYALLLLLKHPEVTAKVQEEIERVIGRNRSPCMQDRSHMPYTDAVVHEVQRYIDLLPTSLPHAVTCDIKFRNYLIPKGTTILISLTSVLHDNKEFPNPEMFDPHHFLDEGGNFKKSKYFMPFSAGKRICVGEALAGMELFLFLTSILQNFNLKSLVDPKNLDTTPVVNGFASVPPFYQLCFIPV

[12] = biological target: Cytochrome P450 2C19 (Homo sapiens, UniProt P33261); assay: qHTS Assay for Inhibitors and Substrates of Cytochrome P450 2C19. [Related pubchem assays: 410 ]; type: ADME; conditions: read-out: Potency
Chain of Cytochrome P450 2C19 (P33261 whole entry): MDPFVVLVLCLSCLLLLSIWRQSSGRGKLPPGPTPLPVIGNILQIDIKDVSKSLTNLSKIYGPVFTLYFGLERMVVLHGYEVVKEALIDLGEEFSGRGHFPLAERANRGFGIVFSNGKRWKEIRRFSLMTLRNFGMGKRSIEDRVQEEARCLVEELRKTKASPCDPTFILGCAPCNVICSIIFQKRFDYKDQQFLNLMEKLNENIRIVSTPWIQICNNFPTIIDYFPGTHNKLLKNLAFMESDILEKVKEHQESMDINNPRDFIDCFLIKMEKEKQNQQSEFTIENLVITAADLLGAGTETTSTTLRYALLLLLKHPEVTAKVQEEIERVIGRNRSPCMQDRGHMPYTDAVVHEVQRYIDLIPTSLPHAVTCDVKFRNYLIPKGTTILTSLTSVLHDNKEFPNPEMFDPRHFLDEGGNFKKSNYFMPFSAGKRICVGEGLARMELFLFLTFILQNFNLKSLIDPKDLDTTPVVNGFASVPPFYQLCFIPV

Chain of Chaperone protein dnaK (C3TRK2 whole entry): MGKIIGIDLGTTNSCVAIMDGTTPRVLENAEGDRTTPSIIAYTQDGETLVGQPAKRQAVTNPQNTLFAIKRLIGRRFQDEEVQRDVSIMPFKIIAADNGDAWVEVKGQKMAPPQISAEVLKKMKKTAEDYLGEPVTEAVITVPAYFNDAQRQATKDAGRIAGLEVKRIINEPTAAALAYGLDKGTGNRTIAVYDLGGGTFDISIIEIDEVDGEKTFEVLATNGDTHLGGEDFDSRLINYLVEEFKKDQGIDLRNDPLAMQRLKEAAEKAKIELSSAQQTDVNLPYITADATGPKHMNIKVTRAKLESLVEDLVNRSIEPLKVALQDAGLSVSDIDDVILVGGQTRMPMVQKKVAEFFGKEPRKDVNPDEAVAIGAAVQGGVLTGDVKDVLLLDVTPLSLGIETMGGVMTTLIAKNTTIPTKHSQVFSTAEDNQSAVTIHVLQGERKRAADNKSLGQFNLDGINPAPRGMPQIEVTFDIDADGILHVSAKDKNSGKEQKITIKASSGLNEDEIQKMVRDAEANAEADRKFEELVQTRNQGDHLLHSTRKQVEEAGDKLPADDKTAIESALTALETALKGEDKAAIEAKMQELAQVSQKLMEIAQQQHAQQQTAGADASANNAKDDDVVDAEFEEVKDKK

With `O=C(NCc1cccc2ccccc12)c1cccs1` the Kd [1] was 1.7 µM (active).

With `NC(=O)c1c(N)sc2c1CCCCCCCCCC2` the Ki [2] was 39.8 µM (inactive).

For `O=C1C(Br)=C(c2ccccc2)C(c2ccccc2)=C1c1ccccc1`, the AC50 [3] was 38.8 µM (active), the AC50 [4] was 0.46 µM (active) and the IC50 [5] was > 66.6 µM (inactive). The IC50 [6] was > 66.6 µM (inactive) and the AC50 [7] was 4.75 µM (active).

In the case of `COc1ccc(C(=O)O/N=C(\N)c2ccccc2)cc1`, the EC50 [8] is reported as 0.921 µM (active) and the AC50 [9] is reported as 37.7 µM (active).

For `CCCCCCC#Cc1cc(OC)c(OC)cc1C(N1CC(C)c2ccccc21)N1CC(C)c2ccccc21` (configuration not stated), the AC50 [10] was 7.94 µM (inconclusive), the AC50 [11] was 3.16 µM (inconclusive) and the AC50 [12] was 3.98 µM (inconclusive).
